{"source": "ChEMBL document CHEMBL3046487", "about": "“Preparation and root growth-modulatory activity of N-substituted 2-acetylamino-2-ethoxycarbonyl-3-(2-furyl)propanamides” (2001)", "format_in_all_cases": "functional", "key": {"[1]": {"tested_on": "Brassica rapa subsp. oleifera", "assay": "Root growth inhibition of Brassica rapa subsp. oleifera seedling at 1 x 10^-3 M after 7 days by agar dilution method relative to control", "details": "168 h, read-out: GI"}, "Allium tuberosum [2]": {"tested_on": "Allium tuberosum", "assay": "Root growth inhibition of Allium tuberosum seedling at 1 x 10^-3 M after 10 days by agar dilution method relative to control", "details": "240 h, read-out: GI"}, "Allium tuberosum [3]": {"tested_on": "Allium tuberosum", "assay": "Root growth promotion of Allium tuberosum seedling at 1 x 10^-3 M after 10 days by agar dilution method relative to control", "details": "240 h, read-out: GI"}, "[4]": {"tested_on": "Brassica rapa subsp. oleifera", "assay": "Root growth inhibition of Brassica rapa subsp. oleifera seedling at 1 x 10^-4 M after 7 days by agar dilution method relative to control", "details": "168 h, read-out: GI"}, "Allium tuberosum [5]": {"tested_on": "Allium tuberosum", "assay": "Root growth inhibition of Allium tuberosum seedling at 5 x 10^-5 M after 10 days by agar dilution method relative to control", "details": "240 h, read-out: GI"}, "Allium tuberosum [6]": {"tested_on": "Allium tuberosum", "assay": "Root growth inhibition of Allium tuberosum seedling at 5 x 10^-4 M after 10 days by agar dilution method relative to control", "details": "240 h, read-out: GI"}, "[7]": {"tested_on": "Brassica rapa subsp. oleifera", "assay": "Root growth inhibition of Brassica rapa subsp. oleifera seedling at 5 x 10^-5 M after 7 days by agar dilution method relative to control", "details": "168 h, read-out: GI"}, "Allium tuberosum [8]": {"tested_on": "Allium tuberosum", "assay": "Root growth inhibition of Allium tuberosum seedling at 1 x 10^-4 M after 10 days by agar dilution method relative to control", "details": "240 h, read-out: GI"}, "[9]": {"tested_on": "Brassica rapa subsp. oleifera", "assay": "Root growth inhibition of Brassica rapa subsp. oleifera seedling at 5 x 10^-4 M after 7 days by agar dilution method relative to control", "details": "168 h, read-out: GI"}}}
{"smiles": "CCOC(=O)C(Cc1ccco1)(NC(C)=O)C(=O)OCC", "values": [{"measurement": "inhibition of growth at 1000 µM", "setting": "[1]", "result": 26, "unit": "%"}, {"measurement": "inhibition of growth at 1000 µM", "setting": "Allium tuberosum [2]", "result": 4, "unit": "%"}]}
{"smiles": "CCOC(=O)C(Cc1ccco1)(NC(C)=O)C(=O)O", "note": "(configuration not stated)", "values": [{"measurement": "inhibition of growth at 1000 µM", "setting": "[1]", "result": 66, "unit": "%"}, {"measurement": "inhibition of growth at 1000 µM", "setting": "Allium tuberosum [2]", "result": 47, "unit": "%"}]}
{"smiles": "CCOC(=O)C(Cc1ccco1)(NC(C)=O)C(=O)Nc1ccccc1", "note": "(racemic)", "values": [{"measurement": "inhibition of growth at 1000 µM", "setting": "[1]", "result": 3, "unit": "%"}, {"measurement": "inhibition of growth at 1000 µM", "setting": "Allium tuberosum [2]", "result": 7, "unit": "%"}]}
{"smiles": "CCCCNC(=O)C(Cc1ccco1)(NC(C)=O)C(=O)OCC", "note": "(racemic)", "values": [{"measurement": "inhibition of growth at 1000 µM", "setting": "[1]", "result": 9, "unit": "%"}, {"measurement": "inhibition of growth at 1000 µM", "setting": "Allium tuberosum [2]", "result": 4, "unit": "%"}]}
{"smiles": "CCOC(=O)C(Cc1ccco1)(NC(C)=O)C(=O)Nc1ccc(Cl)cc1", "note": "(racemic)", "values": [{"measurement": "inhibition of growth at 1000 µM", "setting": "[1]", "result": 49, "unit": "%"}, {"measurement": "inhibition of growth at 1000 µM", "setting": "Allium tuberosum [3]", "result": 14, "unit": "%"}]}
{"smiles": "CCOC(=O)C(Cc1ccco1)(NC(C)=O)C(=O)NCc1ccco1", "note": "(racemic)", "values": [{"measurement": "inhibition of growth at 1000 µM", "setting": "[1]", "result": 13, "unit": "%"}, {"measurement": "inhibition of growth at 1000 µM", "setting": "Allium tuberosum [3]", "result": 36, "unit": "%"}]}
{"smiles": "CCOC(=O)C(Cc1ccco1)(NC(C)=O)C(=O)Nc1nccs1", "note": "(racemic)", "values": [{"measurement": "inhibition of growth at 1000 µM", "setting": "[1]", "result": 53, "unit": "%"}, {"measurement": "inhibition of growth at 1000 µM", "setting": "Allium tuberosum [2]", "result": 29, "unit": "%"}]}
{"smiles": "CCOC(=O)C(Cc1ccco1)(NC(C)=O)C(=O)Nc1ncc(C)s1", "note": "(racemic)", "values": [{"measurement": "inhibition of growth at 1000 µM", "setting": "[1]", "result": 61, "unit": "%"}, {"measurement": "inhibition of growth at 1000 µM", "setting": "Allium tuberosum [2]", "result": 42, "unit": "%"}]}
{"smiles": "CCOC(=O)C(Cc1ccco1)(NC(C)=O)C(=O)Nc1ncc([N+](=O)[O-])s1", "note": "(racemic)", "values": [{"measurement": "inhibition of growth at 1000 µM", "setting": "[1]", "result": 94, "unit": "%"}, {"measurement": "inhibition of growth at 1000 µM", "setting": "Allium tuberosum [2]", "result": 54, "unit": "%"}]}
{"smiles": "CCOC(=O)C(Cc1ccco1)(NC(C)=O)C(=O)Nc1ncc(Br)s1", "note": "(racemic)", "values": [{"measurement": "inhibition of growth at 1000 µM", "setting": "[1]", "result": 100, "unit": "%"}, {"measurement": "inhibition of growth at 100 µM", "setting": "[4]", "result": 80, "unit": "%"}, {"measurement": "inhibition of growth at 50 µM", "setting": "Allium tuberosum [5]", "result": 30, "unit": "%"}, {"measurement": "inhibition of growth at 500 µM", "setting": "Allium tuberosum [6]", "result": 53, "unit": "%"}, {"measurement": "inhibition of growth at 50 µM", "setting": "[7]", "result": 21, "unit": "%"}, {"measurement": "inhibition of growth at 1000 µM", "setting": "Allium tuberosum [2]", "result": 56, "unit": "%"}, {"measurement": "inhibition of growth at 100 µM", "setting": "Allium tuberosum [8]", "result": 50, "unit": "%"}, {"measurement": "inhibition of growth at 500 µM", "setting": "[9]", "result": 98, "unit": "%"}]}
{"smiles": "CCOC(=O)C(Cc1ccco1)(NC(C)=O)C(=O)Nc1nc2c(Cl)cccc2s1", "note": "(racemic)", "values": [{"measurement": "inhibition of growth at 1000 µM", "setting": "[1]", "result": 100, "unit": "%"}, {"measurement": "inhibition of growth at 100 µM", "setting": "[4]", "result": 50, "unit": "%"}, {"measurement": "inhibition of growth at 50 µM", "setting": "Allium tuberosum [5]", "result": 10, "unit": "%"}, {"measurement": "inhibition of growth at 500 µM", "setting": "Allium tuberosum [6]", "result": 50, "unit": "%"}, {"measurement": "inhibition of growth at 50 µM", "setting": "[7]", "result": 41, "unit": "%"}, {"measurement": "inhibition of growth at 1000 µM", "setting": "Allium tuberosum [2]", "result": 70, "unit": "%"}, {"measurement": "inhibition of growth at 100 µM", "setting": "Allium tuberosum [8]", "result": 10, "unit": "%"}, {"measurement": "inhibition of growth at 500 µM", "setting": "[9]", "result": 91, "unit": "%"}]}
{"smiles": "O=C(O)COc1ccc(Cl)cc1Cl", "note": "[2,4-DICHLOROPHENOXYACETIC ACID]", "values": [{"measurement": "inhibition of growth at 1000 µM", "setting": "[1]", "result": 100, "unit": "%"}, {"measurement": "inhibition of growth at 100 µM", "setting": "[4]", "result": 98, "unit": "%"}, {"measurement": "inhibition of growth at 50 µM", "setting": "Allium tuberosum [5]", "result": 97, "unit": "%"}, {"measurement": "inhibition of growth at 500 µM", "setting": "Allium tuberosum [6]", "result": 100, "unit": "%"}, {"measurement": "inhibition of growth at 50 µM", "setting": "[7]", "result": 98, "unit": "%"}, {"measurement": "inhibition of growth at 1000 µM", "setting": "Allium tuberosum [2]", "result": 100, "unit": "%"}, {"measurement": "inhibition of growth at 100 µM", "setting": "Allium tuberosum [8]", "result": 99, "unit": "%"}, {"measurement": "inhibition of growth at 500 µM", "setting": "[9]", "result": 99, "unit": "%"}]}
